In ChEMBL document CHEMBL1130580, “Synthesis and biological activity of new bradykinin pseudopeptide B1 receptor agonists containing alkylic spacers” (Bioorg Med Chem Lett, 1997):
pEC50, pKi: −log10 of the molar value. One block for each compound: values may come before it. Numbered stars: 1 amine (or outer) side, 2 acyl side, 3 side chain; on linkers, the order of the positions; unused ones are H or OH. Square brackets hold non-standard residues; d marks the D form. Peptide text beside a SMILES is read from it. ξ: configuration not given here. Oic(3aξ,7aξ) = O=C(O)[C@@H]1CC2CCCCC2N1; X2 = O=C([C@H]1c2ccccc2CCN1[*:1])[*:2]; X1 = O=C(CCCCCCCCCCCCN[*:1])[*:2]

Legend:
B1 bradykinin receptor = target: T1, B1 bradykinin receptor (Rattus norvegicus, UniProt P97583); assay: Compound was evaluated for agonist activity against B1 receptor in rat ileum longitudinal smooth muscle; assay type: functional, tissue-based
T1 sequence (P97583 whole entry): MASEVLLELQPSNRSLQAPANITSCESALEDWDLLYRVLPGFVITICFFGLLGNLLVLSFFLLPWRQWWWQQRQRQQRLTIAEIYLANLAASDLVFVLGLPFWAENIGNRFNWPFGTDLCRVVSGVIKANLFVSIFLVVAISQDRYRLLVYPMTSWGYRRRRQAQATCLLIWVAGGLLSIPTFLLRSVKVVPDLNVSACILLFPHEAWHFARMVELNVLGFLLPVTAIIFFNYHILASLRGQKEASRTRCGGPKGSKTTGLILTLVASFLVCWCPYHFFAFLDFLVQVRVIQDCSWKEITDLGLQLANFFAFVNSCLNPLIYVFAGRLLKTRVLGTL

B2 bradykinin receptor [1] = target: T2, B2 bradykinin receptor (Cavia porcellus, UniProt O70526); assay: Compound was evaluated for inhibitory activity against [3H]BK in the classical guinea pig ileum B2 binding assay; assay type: tissue-based
T2 sequence (O70526 whole entry): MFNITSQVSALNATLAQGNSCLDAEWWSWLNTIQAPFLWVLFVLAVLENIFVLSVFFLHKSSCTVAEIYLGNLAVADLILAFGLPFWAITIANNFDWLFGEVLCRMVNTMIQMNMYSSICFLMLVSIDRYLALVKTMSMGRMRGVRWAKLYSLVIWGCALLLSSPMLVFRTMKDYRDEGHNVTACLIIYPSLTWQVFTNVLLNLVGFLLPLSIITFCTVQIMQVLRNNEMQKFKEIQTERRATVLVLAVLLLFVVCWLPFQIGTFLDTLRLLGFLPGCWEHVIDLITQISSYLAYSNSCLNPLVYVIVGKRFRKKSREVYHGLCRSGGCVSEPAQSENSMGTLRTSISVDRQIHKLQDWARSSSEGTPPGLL

B2 bradykinin receptor [2] = target: T2, B2 bradykinin receptor; assay: Functional antagonism against BK-induced contractions in the classical guinea pig ileum B2 binding assay; assay type: tissue-based; details: read-out: pA2 (converted)
B2 bradykinin receptor [3] = target: T3, B2 bradykinin receptor (Homo sapiens, UniProt P30411); assay: Compound was evaluated for inhibitory activity against [3H]BK in membrane preparations from a stable cell line that expresses the human B2 receptor
T3 sequence (P30411 whole entry): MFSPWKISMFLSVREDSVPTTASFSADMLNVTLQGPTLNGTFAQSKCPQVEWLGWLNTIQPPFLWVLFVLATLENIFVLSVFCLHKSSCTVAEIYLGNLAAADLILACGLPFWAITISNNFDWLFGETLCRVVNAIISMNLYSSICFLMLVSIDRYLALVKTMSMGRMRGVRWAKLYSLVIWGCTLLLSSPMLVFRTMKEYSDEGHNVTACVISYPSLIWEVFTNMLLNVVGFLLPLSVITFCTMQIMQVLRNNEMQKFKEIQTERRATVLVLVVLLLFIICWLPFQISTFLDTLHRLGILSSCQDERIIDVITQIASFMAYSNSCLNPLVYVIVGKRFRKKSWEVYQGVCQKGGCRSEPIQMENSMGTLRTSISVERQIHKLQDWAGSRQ

pEC50 (B1 bradykinin receptor): 7.07
Compound: NCCCC[C@H](N)C(=O)N[C@@H](CCCN=C(N)N)C(=O)N1CCC[C@H]1C(=O)N1CCC[C@H]1C(=O)NCC(=O)N[C@@H](Cc1ccccc1)C(=O)N[C@@H](CO)C(=O)N1CCC[C@H]1C(=O)N[C@@H](Cc1ccccc1)C(=O)O

pKi (B2 bradykinin receptor [1]): 6.44 | Kb (B2 bradykinin receptor [2]): 3160 nM
Compound: N=C(N)NCCC[C@H](NC(=O)[C@H](N)CCCN=C(N)N)C(=O)NCCCCCCCCCCCC(=O)N[C@@H](CO)C(=O)N1CCc2ccccc2[C@@H]1C(=O)N1C2CCCCC2C[C@H]1C(=O)N[C@@H](CCCN=C(N)N)C(=O)O (stereo not given in full)

pEC50 (B1 bradykinin receptor): 6.01
Compound: NCCCC[C@H](N)C(=O)N[C@@H](CCCN=C(N)N)C(=O)NCCCCCCCCCCCCC(=O)N[C@@H](CO)C(=O)N1CCC[C@H]1C(=O)N[C@@H](Cc1ccccc1)C(=O)O (H-KR[X1]SPF-OH)

pKi (B2 bradykinin receptor [3]): 7.36
Compound: NC(N)=NCCC[C@H](NC(=O)[C@@H]1CC2CCCCC2N1C(=O)[C@H]1c2ccccc2CCN1C(=O)[C@H](CO)NC(=O)CCCCCCCCCCCCNC(=O)[C@H](CCCN=C(N)N)NC(=O)[C@@H](N)CCCN=C(N)N)C(=O)O (stereo not given in full) (H-RR[X1]S[X2][Oic(3aξ,7aξ)]R-OH)
